From article PMC10223284, “Category-Based Toxicokinetic Evaluations of Data-Poor Per- and Polyfluoroalkyl Substances (PFAS) using Gas Chromatography Coupled with Mass Spectrometry” (Toxics, 2023)
Where “and” joins values, the source holds several entries; their conditions need not be identical. Equal entries are not always repeated. Where two headings read alike, the source gives them in different places.

Key:
[1] = Hepatic metabolic stability (hepatocyte clearance) assay, substrate depletion; type: in vitro ADME, human; conditions: both sexes, human, hepatocytes; for half-life at 1 μM: read-out: Linear Regression Results, Best-Fit Values, Half Life
Source text: (§1) William’s Medium E (Gibco A1217601), dexamethasone, and cell maintenance cocktail B (Gibco CM4000) were obtained from Thermo Fisher Scientific (Waltham, MA, USA). Hepatosure OptiThaw media (P/N K8000; Lot No. 18–1–0322) was obtained from Sekisui Xenotech (Kansas City, KS, USA). Trypan blue solution (P/N 1450021) was obtained from Bio-Rad (Hercules, CA, USA). Pooled human cryopreserved primary hepatocyte suspensions were obtained from BioIVT (Westbury, NY, USA) and produced using nontransplantable tissue. The human 50-donor pool (mixed gender; Cat X0080005; Lot MYC), selected from BioIVT’s commercially available, prepooled lots, was selected following review of vendor-generated metabolic characterization information. Pooled, mixed-sex human plasma from de-identified donors was obtained from a commercial vendor that operates a U.S. Food and Drug Administration-licensed and inspected donor center (BioIVT bioivt.com (accessed 12 May 2023). Donors comprised five males and five females and ranged from 20 to 50 years of age. Plasma collected using anticoagulant K2EDTA was sterile-filtered ([…]) and stored at <−70 °C until use.
(§2) The hepatic metabolic stability assay measures the loss of a parent compound over time in a substrate-depletion approach. Briefly, hepatocyte suspensions, after a viability assessment, were diluted in complete William’s medium E (containing dexamethasone and cell maintenance cocktail B) prior to addition to 96-well polypropylene plates containing an equal volume of media spiked with the test compound (1 μM assay concentration; assay cell density = 50,000 cells/100 μL) and maintained at 37 °C with shaking. At each time point, relevant plates were crashed with an equal volume of ice-cold acetonitrile, centrifuged, and supernatant transferred to a new plate prior to storage at <−70 °C until quantitative analysis. Controls, run in parallel, included cell-free (i.e., media only) and metabolically inactivated hepatocytes to evaluate abiotic chemical stability in the aqueous media matrix with and without cellular protein. In preliminary runs, these controls were run at T0 and T240 only. If significant instability was noted, the hepatocyte clearance assay was rerun, including cell-free samples at each time point and metabolically inactivated hepatocytes at selected time points.
(§3) To process samples for quantitative analysis, samples were thawed and mixed. An aliquot of sample was removed and diluted in acetonitrile (1 part sample plus 9 parts acetonitrile) containing the relevant ISs selected for the PFAS being analyzed (See Table S2). The target at instrument concentration of each IS was 10 pg/μL.
(§4) The curves were generated using concentration/response ratios from the target analyte and IS, with either linear or quadratic regression models. The model and weighting, if necessary, were chosen to most accurately reflect the response of each compound and was evaluated by recalculating the individual calibration points using the curve. An acceptable model reflected an accuracy of ±30% of the theoretical value.
(§5) Hepatic metabolic clearance data were plotted in semi-log format (ln concentration vs. time) with three replicates at each time point, as previously described. […] The equations described below are used to calculate the chemical half-life (T½) and intrinsic in vitro clearance (Clin vitro) with units of μL/(min × million hepatocytes). In Equation (3), 2000 is a scalar used to adjust the assay cell number up to be consistent with units of 1 million cells in the Clint equation.
(§6) Negative controls, including media only and metabolically inactivated hepatocyte controls, were included to monitor abiotic loss (i.e., background clearance) during the assay. Where significant compound loss occurred using the analysis described above, background clearance rates were calculated and used to background-adjust hepatic metabolic clearance rates. […]

[2] = tested on: pooled human cryopreserved primary hepatocyte suspensions; experiment: as above; type: in vitro ADME; conditions: for Linear Regression Results, Best-Fit Values, Slope: hepatocyte time course
Source text: as §1, §2, §3, §4, §5, §6

[3] = Abiotic loss in negative controls of the hepatocyte clearance assay (cell-free media, metabolically inactivated hepatocytes); type: in vitro ADME; conditions: for half-life at 1 μM / HT BkgdCl, Slope / No Cells BkgdCl, Slope: 0 vs 240 min; for Hep_Stab_Fail: flag for stability failure in hepatocyte clearance assay controls (1 or Fst = fail, 0 = pass); for Negative Controls, Heat Treated (HT), concentration at 0 min / Negative Controls, Heat Treated (HT), concentration at 240 min: heat treated hepatocytes; for Negative Controls, Heat Treated (HT), concentration at 0 min / Negative Controls, Heat Treated (HT), concentration at 240 min / Negative Controls, No cells (NC), concentration at 0 min / Negative Controls, No cells (NC), concentration at 240 min: Rep 1-3
Method in brief: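 Test compound at 1 μM incubated at 37 °C with shaking in complete William's medium E, either cell-free or with metabolically inactivated hepatocytes, then quenched with ice-cold acetonitrile for quantitative analysis.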

[4] = In vitro-in vivo extrapolation (IVIVE) to Css and administered equivalent dose (AED); set-up: species or system human; conditions: for Clhep: IVIVE, hepatocyte Clint scaled to whole-liver clearance; for AED: administered equivalent dose from LOEC and Css; for Fub: fub=fup/(B:P), Fub set to 1 if needed; for CLint: scaled with HPGL 110 mill cells/g, Vl 1596 g
Method: Using the experimentally generated PPB (fraction unbound in plasma, fup) and hepatic Clint data, IVIVE was performed as previously described to calculate human steady-state plasma concentrations (Css). Briefly, experimental measures of fup are adjusted using blood:plasma partitioning information to estimate the fraction unbound in blood (fub). Experimental hepatocyte Clint data are scaled up to represent whole-liver clearance (L/h). […] Once estimated, these Css values are considered in conjunction with published in vitro bioactivity concentrations (i.e., lowest-observed effective concentrations, or LOECs) to calculate AEDs (Table 2). See Table S10 for all relevant IVIVE inputs, scalars, calculations, and outputs.

human primary cells = conditions: cited from earlier work
in vitro = conditions: both, human, plasma
human plasma [5] = experiment: Chemical stability in plasma over the UC assay time course (T5hr/T1hr); conditions: for PPB_Stab_Fail: flag for stability failure in the plasma protein binding assay (1 = fail, 0 = pass); for Fstable.Med: median fraction stable in plasma, UC assay Level4
Method: Three replicates were run per experiment, with 4NT included as a reference compound in each to evaluate assay performance. All PFAS and 4NT, prepared at a 3 mM working stock, were added to human plasma to achieve a final, thoroughly mixed assay concentration of 10 μM, incubated at 37 °C for 1 h with shaking. […] After UC, the aqueous fraction (AF; i.e., supernatant devoid of plasma proteins/lipoproteins/fatty acids) was collected and transferred to a new tube. The second aliquot maintained at 37 °C was collected (T5hr). At the relevant time points, each volume of sample was combined with 3 volumes of vigorously mixed ice-cold acetonitrile with the labeled IS and stored for 10 min at −20 °C prior to centrifugation at 12,000× g for 10 min at 4 °C. The supernatant was collected and stored at <−70 °C until quantitative analysis. […] Furthermore, chemical stability in plasma over the assay time course was assessed using the T1hr and T5hr samples.
Percent chemical remaining at the end of the UC assay (T5hr/T1hr) was used to remove unstable chemicals from further evaluation.

human plasma [6] = experiment: Ultracentrifugation (UC) plasma protein binding assay, fraction unbound in plasma (fup); conditions: for fup: human plasma, 10 μM, ultracentrifugation, 37 °C; for Fup.Med: median fraction unbound in plasma; for Fup.Med / Fup.point: UC assay Level4; for Fup.point: point estimate of fraction unbound in plasma
[7] = background-subtracted, read-out: Bkgd-Sub Clearance (µL/min/106 hepatocytes)
[8] = pooled human hepatocyte suspensions, 1 μM, read-out: In Vitro Clint
[9] = unadjusted hepatocyte intrinsic clearance, read-out: Unadj in vitro Clint
[10] = hepatocyte time course, NS = slope not significant, read-out: Linear Regression Results, Best-Fit Values, Clearance
[11] = hepatocyte time course, NS = slope not significant
[12] = hepatocyte incubation, Rep 1-3, start conc 1000 nM
[13] = both sexes, human, heat treated hepatocytes control, read-out: HT BkgdCl, Half Life
[14] = buffer, no cells control, read-out: No Cells BkgdCl, Half Life
[15] = heat treated hepatocytes control
[16] = Assuming 1 mg/kg/day dose rate, BW 70 kg
[17] = human steady-state plasma concentration, assuming 1 mg/kg/day dosage
[18] = BioSeek lowest-observed effect concentration used for AED
[19] = minimum lowest-observed effect concentration, BioSeek platform
[20] = Mean fu, fraction unbound in human plasma, ultracentrifugation, some values based on eLOQ

Structure (SMILES): Cc1ccc(S(=O)(=O)OCC(F)(F)C(F)(F)C(F)(F)C(F)(F)C(F)(F)C(F)F)cc1 [1H,1H,7H-Perfluoroheptyl 4-methylbenzenesulfonate]
- hepatocyte CLint at 1 μM [1, 7]: 23.9 µL/min/1e6 cells
- hepatocyte CLint at 1 μM ([1]; hepatocyte clearance, Conc 1000 nM, not background adjusted, read-out: Unadj Clint): 31 µL/min/1e6 cells
- hepatocyte CLint at 1 μM [1, 8]: 23.9 µL/min/1e6 cells
- hepatocyte CLint at 1 μM [1, 9]: 31 µL/min/1e6 cells
- hepatocyte CLint at 1 μM [1, 10]: 31 µL/min/1e6 cells
- half-life at 1 μM [1, 11]: 0.746 h
- Concentration (nM), Time 15 min [2, 12]: 1073.03 nM and 1187.92 nM and 943.206 nM
- Concentration (nM), Time 30 min [2, 12]: 985.478 nM and 1012.58 nM and 870.92 nM
- Concentration (nM), Time 60 min [2, 12]: 899.811 nM and 874.355 nM and 982.505 nM
- Linear Regression Results, Best-Fit Values, Slope [2]: -0.01549
- half-life at 1 μM [3, 13]: 2.62 h
- half-life at 1 μM [3, 14]: 3.24 h
- Hep_Stab_Fail [3]: 0
- HT BkgdCl, Slope [3, 15]: -0.004413
- Negative Controls, Heat Treated (HT), concentration at 0 min [3]: 1655.88 nM and 1540.88 nM and 2130.45 nM
- Negative Controls, Heat Treated (HT), concentration at 240 min [3]: 752.335 nM and 712.914 nM and 422.601 nM
- No Cells BkgdCl, Slope ([3]; no cells control): -0.003563
- Negative Controls, No cells (NC), concentration at 0 min [3]: 1381.59 nM and 1965.43 nM and 2200.38 nM
- Negative Controls, No cells (NC), concentration at 240 min [3]: 723.371 nM and 790.633 nM and 803.182 nM
- Css [4, 16]: 4.87 mg/L and 10.01 uM
- Clhep [4]: 0.588 L/h
- AED [4]: 0.6995 mg/kg/day
- Fub [4]: 0.002357
- Css [4, 17]: 10.01 µM
- CLint [4]: 4187106 µL/min
- LOEC (human primary cells; [18]): 7.00 µM
- LOEC (human primary cells; [19]): 7 µM
- fraction unbound (in vitro; Fraction Unbound (fu), Run-specific Avg, average of one UC run (run date in line above)): 0.03
- fraction unbound (in vitro; [20]): 0.029
- Stability (T5hr/ T1hr), Run-specific Avg (human plasma [5]; average of one UC run (run date in line above)): 0.983
- PPB_Stab_Fail (human plasma [5]): 0
- Mean Stability (human plasma [5]; mean T5hr/T1hr ratio over all replicates and runs, plasma): 1.006
- Fstable.Med (human plasma [5]): 1
- Stability (T5hr/ T1hr), replicates A, B, C (human plasma [5]; single replicate of one UC run): 0.9436 and 0.9774 and 1.0981
- fup (human plasma [6]): 0.0290
- Fup.Med (human plasma [6]): 0.116
- Fup.point (human plasma [6]): 0.0275
- Fraction Unbound (fu), replicates A, B, C (human plasma [6]; single replicate of one UC run (aqueous fraction / Time 5 hr)): 0.01902 and 0.02822 and 0.04008

Structure (SMILES): NC(=O)C(F)(F)C(F)(F)C(F)(F)C(F)(F)C(N)=O [Octafluoroadipamide]
- hepatocyte CLint at 1 μM [1, 7]: 2.95 µL/min/1e6 cells
- hepatocyte CLint at 1 μM [1, 8]: 2.95 µL/min/1e6 cells
- hepatocyte CLint at 1 μM [1, 9]: 5.29 µL/min/1e6 cells
- hepatocyte CLint at 1 μM [1, 10]: 5.29 µL/min/1e6 cells
- half-life at 1 μM [1, 11]: 4.37 h
- Concentration (nM), Time 0 min [2, 12]: 263.339 nM and 217.701 nM and 209.817 nM
- Concentration (nM), Time 15 min [2, 12]: 291.912 nM and 225.036 nM and 414.445 nM
- Concentration (nM), Time 30 min [2, 12]: 391.931 nM and 314.083 nM and 336.529 nM
- Concentration (nM), Time 60 min [2, 12]: 437.175 nM and 457.948 nM and 302.199 nM
- Concentration (nM), Time 120 min [2, 12]: 293.394 nM and 338.799 nM and 278.045 nM
- Linear Regression Results, Best-Fit Values, Slope [2]: -0.002646
- half-life at 1 μM [3, 13]: 7.63 h
- half-life at 1 μM [3, 14]: 9.88 h
- Hep_Stab_Fail [3]: 0
- HT BkgdCl, Slope [3, 15]: -0.001514
- Negative Controls, Heat Treated (HT), concentration at 0 min [3]: 209.171 nM and 207.599 nM and 206.567 nM
- Negative Controls, Heat Treated (HT), concentration at 240 min [3]: 153.885 nM and 136.838 nM and 143.186 nM
- No Cells BkgdCl, Slope ([3]; no cells control): -0.00117
- Negative Controls, No cells (NC), concentration at 0 min [3]: 214.709 nM and 240.687 nM and 228.618 nM
- Negative Controls, No cells (NC), concentration at 240 min [3]: 175.164 nM and 151.709 nM and 191.604 nM
- Css [4, 16]: 0.10 mg/L and 0.34 uM
- Clhep [4]: 23.099 L/h
- AED [4]: 5.8401 mg/kg/day
- Fub [4]: 1
- Css [4, 17]: 0.34 µM
- CLint [4]: 517902 µL/min
- LOEC (human primary cells; [18]): 2.00 µM
- LOEC (human primary cells; [19]): 2 µM
- fraction unbound (in vitro; Fraction Unbound (fu), Run-specific Avg, run-specific average): 0.67
- fraction unbound (in vitro; Fraction Unbound (fu), replicate A, individual replicate A of the UC run dated in c8): 0.704
- fraction unbound (in vitro; Fraction Unbound (fu), replicate B, individual replicate B of the UC run dated in c8): 0.633
- fraction unbound (in vitro; Fraction Unbound (fu), replicate C, individual replicate C of the UC run dated in c8): 0.732
- fraction unbound (in vitro; Mean Fu (fraction unbound), mean over all UC runs and replicates, human plasma): 0.82
- fraction unbound (in vitro; [20]): 0.82
- PPB_Stab_Fail (human plasma [5]): 0
- Mean Stability (T5hr/T1hr) (human plasma [5]; mean over all UC runs and replicates, human plasma): 0.977
- Fstable.Med (human plasma [5]): 0.546
- Stability (T5hr/ T1hr), Run-specific Avg (human plasma [5]; run-specific average): 0.982
- fup (human plasma [6]): 0.8201
- Fup.Med (human plasma [6]): 0.864
- Fup.point (human plasma [6]): 0.834
